# Measurements reported in patent US6410480B1, “Herbicidally active 3-hydroxy-4-aryl-5-oxopyrazoline derivatives” (Syngenta Crop Protection, Inc., priority 1998, dated 2002).
# Columns and labels:
# Type in all cases: in vivo
# Avena [1] = assay: Example B4: post-emergence herbicidal action of compounds of the invention; design: key: 1=complete damage; 9=no effect; Ratings of 1 to 4 (in particular 1 to 3) mean a good to very good herbicidal action; conditions: 3- to 6-leaf stage, 250 g of active substance/ha, 3 weeks after application, scale 1-9
# Protocol: (§1) Monocotyledonous and dicotyledonous weeds are grown in standard soil in plastic pots under greenhouse conditions. The test substances are applied at the 3- to 6-leaf stage of the test plants. The test substances are applied (500 l of water/ha) as an aqueous suspension (prepared using a 25% wettable powder (Example F3, b)) or as an emulsion (prepared using a 25% emulsion concentrate (Example F1, c)) at an application rate of 250 g of active substance/ha. 3 weeks after the application, evaluation is carried out using a nine-level scale of ratings (1=complete damage, 9=no effect). Ratings of 1 to 4 (in particular 1 to 3) mean a good to very good herbicidal action. Test plants: Avena (Ave), Lolium (Lol), Setaria (Set).
# Lolium [2] = assay: as above; design: key: 1=complete damage; 9=no effect; Ratings of 1 to 4 (in particular 1 to 3) mean a good to very good herbicidal action; conditions: 3- to 6-leaf stage, 250 g of active substance/ha, 3 weeks after application, scale 1-9
# Protocol: as §1
# Setaria [3] = assay: as above; design: key: 1=complete damage; 9=no effect; Ratings of 1 to 4 (in particular 1 to 3) mean a good to very good herbicidal action; conditions: 3- to 6-leaf stage, 250 g of active substance/ha, 3 weeks after application, scale 1-9
# Protocol: as §1
# all of the weeds tested = assay: Experimental comparison with the prior art: herbicidal action, pre- and post-emergence, overall statement; conditions: 500 g of active substance/ha, against all of the weeds tested
# Excerpt: The following compounds were examined for their herbicidal activity: Monocotyledonous and dicotyledonous weeds are sown in standard soil in plastic pots. Immediately after sowing, the test substances are applied (500 l of water/ha) as an aqueous suspension (prepared using a 25% wettable powder (Example F3, b)) or as an emulsion (prepared using a 25% emulsion concentrate (Example F1, c)). The application rate is 500 g of active substance/ha. The test plants are subsequently grown under optimum conditions in a greenhouse. 3 weeks after the application, evaluation is carried out using a nine-level scale of ratings (1=complete damage, 9=no effect). Ratings of 1 to 4 (in particular 1 to 3) mean a good to very good herbicidal action. Test plants: Alopecurus (Alo), Avena (Ave), Lolium (Lot), Setaria (Set), Panicum (Pan), Sorghum (Sor), Digitaria (Dig), Echinocloa (Ech) and Brachiaria (Bra). Monocotyledonous and dicotyledonous weeds are grown in standard soil in plastic pots under greenhouse conditions. The test substances are applied at the 3- to 6-leaf stage of the test plants. The test substances are applied (500 l of water/ha) as an aqueous suspension (prepared using a 25% wettable powder (Example F3, b)) or as an emulsion (prepared using a 25% emulsion concentrate (Example F1, c)) at an application rate of 500 g of active substance/ha. […]
# Avena [4] = assay: Example B3: pre-emergence herbicidal action of compounds of the invention; design: key: 1=complete damage; 9=no effect; Ratings of 1 to 4 (in particular 1 to 3) mean a good to very good herbicidal action; conditions: 500 g of active substance/ha, 3 weeks after application, scale 1-9
# Protocol: as §1, with “pots. Directly after sowing,” for “pots under greenhouse conditions. The test substances are applied at”, “the” for “the 3- to 6-leaf stage of the test plants. The”, “c)). The” for “c)) at an”, “is 500” for “of 250”, “substance/ha. The test plants are subsequently grown under optimum conditions in a greenhouse” for “substance/ha.”
# Lolium [5] = assay: as above; design: key: 1=complete damage; 9=no effect; Ratings of 1 to 4 (in particular 1 to 3) mean a good to very good herbicidal action; conditions: 500 g of active substance/ha, 3 weeks after application, scale 1-9
# Protocol: as §1, with “pots. Directly after sowing,” for “pots under greenhouse conditions. The test substances are applied at”, “the” for “the 3- to 6-leaf stage of the test plants. The”, “c)). The” for “c)) at an”, “is 500” for “of 250”, “substance/ha. The test plants are subsequently grown under optimum conditions in a greenhouse” for “substance/ha.”
# Setaria [6] = assay: as above; design: key: 1=complete damage; 9=no effect; Ratings of 1 to 4 (in particular 1 to 3) mean a good to very good herbicidal action; conditions: 500 g of active substance/ha, 3 weeks after application, scale 1-9
# Protocol: as §1, with “pots. Directly after sowing,” for “pots under greenhouse conditions. The test substances are applied at”, “the” for “the 3- to 6-leaf stage of the test plants. The”, “c)). The” for “c)) at an”, “is 500” for “of 250”, “substance/ha. The test plants are subsequently grown under optimum conditions in a greenhouse” for “substance/ha.”
Compound,"Post-emergence action, Ave (rating) (Avena [1])","Post-emergence action, Lol (rating) (Lolium [2])","Post-emergence action, Set (rating) (Setaria [3])",herbicidal action compared with compound A of the prior art (all of the weeds tested),"Pre-emergence action, Ave (rating) (Avena [4])","Pre-emergence action, Lol (rating) (Lolium [5])","Pre-emergence action, Set (rating) (Setaria [6])"
CCc1cc(C)cc(C)c1-c1c(OC(=O)C(C)(C)C)n2n(c1=O)CCOCC2 [1.005],1,2,2,,,,
Cc1cc(C)c(-c2c(O)n3n(c2=O)CCOCC3)c(Br)c1 [1.078],1,1,4,,,,
Cc1cc(C)c(C2C(=O)N3CCOCCN3C2=O)c(C)c1 [Compound No. 1.01],,,,considerably better herbicidal action,,,
Cc1cc(Br)c(-c2c(O)n3n(c2=O)CCOCC3)c(Br)c1 [1.088],4,4,3,,,,
CCc1cc(C)cc(CC)c1-c1c(O)n2n(c1=O)CCOCC2 [Compound No. 1.007],1,1,1,,,,
CCc1cc(C)cc(CC)c1-c1c(OC(=O)C(C)(C)C)n2n(c1=O)CCOCC2 [1.008],,,,,1,1,1
